Data from patent US20250241882A1, “COMPOSITION FOR TREATMENT OF THE SKIN” (DR. KURT WOLFF GMBH & CO. KG, priority 2022, published 2025).
Entries after “also recorded” stand apart in the source; their conditions may differ.

What was measured:
Assay type in all cases: cell-based, human
[1] = system: HaCaT cells; experiment: MTT assay, cell viability; conditions: after 48 h and 72 h of cultivation, versus control without DMG
Description: (§1) 1. As part of an in-vitro study, the effect of Na-dimethylglycinate was investigated in a cell culture model with human horn-forming keratinocyte cells. For this purpose, HaCaT cells were cultured for 1, 3, 5, and 7 days in DMEM medium (including fetal calf serum and an antibiotic-antimycotic mix) and, among other things, the viability, proliferation and migration of the cells were determined using suitable measuring methods, as well as the expression of the growth factors relevant for cell growth.
For this measurement, a so-called MTT assay was used to determine cellular metabolic activity as an indicator of cell viability and cytotoxicity. This colorimetric assay is based on the reduction of a yellow tetrazolium salt (3-(4,5-dimethylthiazol-2-yl)-2,5-diphenyltetrazolium bromide or MTT) to violet formazan crystals by metabolically active cells.
Human epidermal keratinocyte cells (HaCaT) were seeded in a 96-well plate at a cell density of 5,000 cells/well and cultured in medium (DMEM with 10% FBS, 1% penicillin-streptomycin, 0.5% Fungizone). […]
Cell viability was determined using MTT assay. The absorbance was measured using quadruple determination and standardized to the control at 24 h. […]

[2] = system: HaCaT cells; experiment: CyQUANT assay, cell proliferation; conditions: after 48 h and 72 h of cultivation, versus control without DMG
Description: as §1
To measure proliferation, a so-called CyQUANT assay was performed. In this fluorescence-based assay, the fluorescent dye used binds to DNA (deoxyribonucleic acid), whereby the content of cellular DNA is a direct measure of the number of cells within a sample. Human epidermal keratinocyte cells (HaCaT) were seeded in a 96-well plate at a cell density of 5,000 cells/well and cultured in medium (DMEM with 10% FBS, 1% penicillin-streptomycin, 0.5% Fungizone). The next day and after a further 24 h, 48 h and 72 h of cultivation at 37° C. and 5 vol. % CO2, the cell culture medium was changed without (control) or with the active ingredient concentrations already contained. […]
Cell proliferation was determined using the CyQUANT assay. Fluorescence was measured using triple determination each time and standardized to the control at 24 h. […]

[3] = system: HaCaT cells; experiment: wound healing assay, cell migration; conditions: different DMG concentrations, 16 h, 20 h, 24 h, compared to the control without DMG
Description: as §1
To measure migration, a so-called wound healing assay was performed, based on previously published studies in T. Kawabata, T. Otsuka, K. Fujita, G. Sakai, R. Matsushima-Nishiwaki, O. Kozawa, H. Tokuda, International journal of molecular medicine 2018, 42, 3,149-3,156. The principle is based on measuring the migration of cells over time on a cultivation surface yet to be colonized. […]
At time 0 h, the wound was created and images were taken after 16 h, 20 h, and 24 h of cultivation. Based on the images, the cultivation surface, which had not yet been populated by cells, was determined using the ImageJ software. The measured values are standardized to the time point 0 h (maximum size of the wound) and given in %.

[4] = system: VEGF; experiment: VEGF gene expression by qRT-PCR in HaCaT cells; conditions: after 24 h of cultivation, standardized to GAPDH, versus control
Description: VEGF (vascular endothelial growth factor) promotes the growth and formation of new blood and lymph vessels. Gene expression was measured using a standard method of quantitative real-time PCR (qRT-PCR).
Human epidermal keratinocyte cells (HaCaT) were seeded in a 6-well plate at a cell density of 140,000 cells/well and cultured in medium (DMEM with 10% FBS, 1% penicillin-streptomycin, 0.5% Fungizone) at 37° C. and 5 vol. % CO2. The next day, the cell culture medium was changed without (control) and with the active ingredient concentrations already contained and the cells were harvested after 24 h. Gene expression was measured using qRT-PCR based on previously published studies in B. V. Diaz, M.-C. Lenoir, A. Ladoux, C. Frelin, M. Demarchez, S. Michel, Journal of Biological Chemistry 2000, 275, 642-650.
Shown is the relative gene expression of VEGF determined by qRT-PCR (triple determination, standardized to the corresponding gene expression of a constitutively expressed gene; GAPDH-glyceraldehyde-3-phosphate dehydrogenase). The mean value with standard deviation is given.

SMILES: CN(C)CC(=O)[O-].[Na+] [DMG, sodium dimethylglycinate]
- cell viability (MTT assay) [1]: significant increase
- cell proliferation (CyQUANT assay) [2]: significant increase
- migration and wound closure [3]: significantly faster
- relative gene expression of VEGF [4]: significant increase; also recorded: significantly increased
